From patent US20240058318A1, “DEGRADING PKCB1 TO TREAT CANCER” (Mayo Foundation for Medical Education and Research, priority 2020, published 2024)

Key:
[1] = tested on: Rb-proficient (MDAMB231) and Rb-deficient (BT549 and MDAMB436) TNBC cells; experiment: CV proliferation assay, TNBC cells (statements across lines); type: cell-based; conditions: Rb-proficient and Rb-deficient TNBC cells, CV assay
Procedure: (§1) Cell proliferation rates were determined using crystal violet assays. One thousand cells per well were plated in 96 well tissue culture plates and treated the following day with a bifunctional compound or control for 7 days in replicates of 8. Cells were fixed with 25% glutaraldehyde for 10 minutes with shaking, washed 5 times with distilled water, stained with a 1% crystal violet solution (solubilized in 25% methanol) for 10 minutes, washed again 5 times and allowed to dry. De-staining was performed using […] sodium citrate in 50% ethanol followed by quantification using a 96 well spectrophotometer set at an absorbance of 550 nm.
as §1, with “using CV” for “using crystal violet”, “assays. Two” for “assays. One”, “thousand (2000) or 4000” for “thousand”, “for 6” for “for 7”, “of 6.” for “of 8.”

[2] = tested on: MDAH-2774 and KURAMOCHI ovarian cancer cells; experiment: CV proliferation assay, ovarian cancer cells (statements across lines); type: cell-based; conditions: MDAH-2774 and KURAMOCHI cells
Procedure: as §1
Based on the potent anti-proliferative activity of ENDX-PROTACs TC-Pr-006, TC-Pr-007, TC-Pr -008, and TC-Pr -009 in TNBC cells, the efficacy of these compounds for inhibiting the growth of ovarian cancer cells was tested. This analysis utilized KURAMOCHI cells, which represent the high-grade serous subtype (the most malignant form that accounts for 70% of all ovarian cancers and associates with poor clinical outcome) and MDAH-2774 cells, which represent endometrioid ovarian cancer and accounts for 20% of all ovarian cancer. PKCβ1 was confirmed to be expressed in both ovarian cancer cell line models, with MDAH-2774 cells expressing higher amounts of PKCβ1 compared to KURAMOCHI cells (FIG. 5A).

CC/C(=C(\c1ccc(O)cc1)c1ccc(OCCNC)cc1)c1ccccc1 [ENDX, endoxifen, reference compound]
concentration inhibiting growth of TNBC cells [1]: > 5 µM | concentration inhibiting growth of ovarian cancer cells [2]: 10 µM
